In US20140243403A1, “TREATING COLORECTAL, PANCREATIC, AND LUNG CANCER” (The General Hospital Corporation, priority 2011, published 2014):

Assays:
Assay type in all cases: cell-based, human
SKCO1 cells = assay: Cellular proliferation and viability, CRC cell line panel; conditions: KRAS G12V (KRAS-dependent), BRAF WT, APC del, CTNNB1 WT, 3 days post-treatment
Experimental: (§1) (A) IC50 values (μM) for effects on cellular proliferation and viability with the TAK1 kinase inhibitor 5z-7-oxozeaenol in a panel of colon cancer cell lines that have been genotyped as KRAS mutant (KRAS-independent—circles or KRAS-dependent—squares), BRAF mutant (triangles) or wild-type for both KRAS and BRAF (OTHER—diamonds). Effects on growth were measured 3 days post-treatment. Data are represented as the mean of 3 independent experiments and error bars indicate the median±interquartile range. *denotes p<0.00001; n.s.—not significant.
(§2) To further validate TAK1 as a candidate therapeutic target in this context, a potent and selective TAK1 kinase inhibitor, 5Z-7-oxozeaenol (Rawlins et al., 1999), was used. Sensitivity to 5Z-7-oxozeaenol was tested in a panel of 47 colon cancer cell lines with various genotypes (FIGS. 3A and 9A). KRAS and BRAF genotypes were either procured from the Sanger Institute's Catalog of Somatic Mutations (COSMIC) or determined by targeted resequencing (Table 2). KRAS mutation status was determined as described above; the same methods were used to determine the mutation states of BRAF. BRAF exon15 was sequenced with TCATAATGCTTGCTCTGATAGGA (forward; SEQ ID NO:3) and GGCCAAAAATTTAATCAGTGG (reverse; SEQ ID NO:4).

OUMS-23 cells = assay: as above; conditions: KRAS WT, BRAF WT, 3 days post-treatment
Experimental: as §1, §2

LoVo cells = assay: as above; conditions: KRAS G13D (KRAS-dependent), BRAF WT, APC del, CTNNB1 WT, 3 days post-treatment
Experimental: as §1, §2

LS-174T cells = assay: as above; conditions: KRAS G12D, BRAF WT, APC WT, CTNNB1 S45A, 3 days post-treatment
Experimental: as §1, §2

HT115 cells = assay: as above; conditions: KRAS WT, BRAF WT, APC WT, CTNNB1 WT, 3 days post-treatment
Experimental: as §1, §2

CoCM-1 cells = assay: as above; conditions: KRAS WT, BRAF WT, APC WT, CTNNB1 WT, 3 days post-treatment
Experimental: as §1, §2

MDST8 cells = assay: as above; conditions: KRAS WT, BRAF V600K, APC nd, CTNNB1 WT, 3 days post-treatment
Experimental: as §1, §2

CaR-1 cells = assay: as above; conditions: KRAS WT, BRAF WT, 3 days post-treatment
Experimental: as §1, §2

COLO-205 cells = assay: as above; conditions: KRAS WT, BRAF V600E, APC del, CTNNB1 WT, 3 days post-treatment
Experimental: as §1, §2

COLO-741 cells = assay: as above; conditions: KRAS WT, BRAF V600E, 3 days post-treatment
Experimental: as §1, §2

SW620 cells = assay: as above; conditions: KRAS G12V (KRAS-dependent), BRAF WT, APC del, CTNNB1 WT, 3 days post-treatment
Experimental: as §1, §2

LS-180 cells = assay: as above; conditions: KRAS G12D, BRAF WT, APC WT, CTNNB1 S45A, 3 days post-treatment
Experimental: as §1, §2

HCT-15 cells = assay: as above; conditions: KRAS G13D, BRAF WT, APC del, CTNNB1 WT, 3 days post-treatment
Experimental: as §1, §2

[1] = test system: HT29 vector control cells; assay: Sensitivity of HT29 vector control cells
Experimental: (E) Introduction of a V5-tagged constitutively activated (CA) mutant of the BMP receptor, BMPR1A (Q233D) or control vector in HT29 cells and effects on 5Z-7-oxozeaenol sensitivity in terms of IC50 values.
To determine whether TAK1-independent cells could be driven toward TAK1 dependency by enhanced KRAS/Wnt signaling, a series of reconstitution experiments was performed. HT29, SW620 or SKCO1 cells were infected with recombinant lentiviruses encoding either BMPR1A-CA and CTNNB1-CA or vector control (containing the ccDB gene). For BMPR1A-CA stable expression, cells were selected in 5 μg/mlBlasticidin for 7 days and pooled clones were established. Stable expression was verified using the V5 epitope tag on the BMPR1A transgene product. For CTNNB1-CA, the pWPI recombinant lentiviruses encode GFP driven by IRES. Thus, stable cell clones were obtaining by FACS live cell sorting to obtain the top 10% of GFP expressing cells. The SW620-CTNNB1-CA stable cell clones were passaged 1:5 every 2 days and assayed for KRAS dependency after the fifth passage.
To further define the role of BMP signaling in TAK1 dependency, a constitutively-activated (CA) variant (Q233D) of BMPR1A (Zou et al., 1997) was ectopically expressed in HT29 cells. […] This was accompanied by dose-dependent decreases in Axin 2 and phosphorylated Smad2 levels. […]

What does the source list for COc1cc(O)c2c(c1)/C=C/C[C@H](O)[C@H](O)C(=O)/C=C\C[C@H](C)OC2=O [5Z-7-oxozeaenol]?
IC50 (SKCO1 cells): 0.026 µM; IC50 (OUMS-23 cells): 48.4 µM; IC50 (LoVo cells): 0.106 µM; IC50 (LS-174T cells): 6.23 µM; IC50 (HT115 cells): 1.33 µM; IC50 (CoCM-1 cells): 0.926 µM; IC50 (MDST8 cells): 0.226 µM; IC50 (CaR-1 cells): 6.08 µM; IC50 (COLO-205 cells): 1.3 µM; IC50 (COLO-741 cells): 1.82 µM; IC50 (SW620 cells): 0.093 µM; IC50 (LS-180 cells): 6.75 µM; IC50 (HCT-15 cells): 8.2 µM; IC50 [1]: 7.7 µM
